From patent publication US11617774B2, “Composition for preventing or treating stroke or degenerative brain disease” (UNIVERSITY-INDUSTRY COOPERATION GROUP OF KYUNG HEE …, priority 2013, dated 2023)

How the values were obtained:
[1] = system: middle cerebral artery occlusion model rats; assay: Neuroprotective effect in middle cerebral artery occlusion model (MCAo), TTC staining of brain slices; type: in vivo, Sprague-Dawley (SD) rats; details: intravenous right after ischemia induction: Clinoleic20% 200 mg/kg, SMOFlipid20% 500 mg/kg, oleic acid 100 mg/kg, sodium oleate solution 3 mg/kg, TTC staining 24 hours after reperfusion
Experimental: 8 week-old adult male Sprague-Dawley (SD) rats, obtained from Samtako (Korea), weighing 300 g were kept in an environment to adapt to the experimental environment while providing enough feed and water. After one week of adaptation period, the animals were used for the following experiments.
In detail, a nylon suture (4-0, 22 mm) was prepared by silicone coating about 5-8 mm of the end of the suture to have 0.36 mm of diameter, and was used for experiment. The rats prepared in Experimental Example 1.1 were anesthetized with 5% of isoflurane in a mixture of gas (i.e. 70% N2O and 30% O2). A syringe was inserted in one side for blood collection and a probe was inserted in the other side to measure blood pressure. Then the blood glucose level and the blood gas level in the collected blood were measured.
Through midline neck incision, right carotid artery and external carotid artery (ECA), which are branches of external carotid artery, were separated. […]
24 hours after the reperfusion, the animals were sacrificed by cervical spine dislocation. […] The files were stored in a computer, and the infarct area (%) in each tissue slice was calculated according to the following equation 1 by using an analysis program (i.e. Optimas 6.5, Bioscan). The adjusted volume of the infarct area was calculated through following Equation 2. […]

[2] = system: erythroclasis (hemolysis); details: cited from earlier work
[3] = system: transient local cerebral ischemia rat model; details: cited from earlier work
[4] = system: middle cerebral artery occlusion model rats; assay: Safety evaluation: death rate of experimental animals in the middle cerebral artery occlusion model; type: in vivo, Sprague-Dawley (SD) rats; details: MCAo rats, from the time of administration until sacrifice; intravenous: oleic acid 100 mg/kg, sodium oleate solution 3 mg/kg, Clinoleic20% 200 mg/kg, SMOFlipid20% 500 mg/kg
Experimental: Right after degenerative brain disease induction, death rate was calculated by counting number of dead animals in every group from the time of administration until they were sacrificed.

Row | Structure (SMILES) | TTC-unstained area (neuronal cell death) of brain slices compared to the control group [1] | erythroclasis (hemolysis) in an in vitro test [2] | protective / neuroprotective efficacy [3] | Death Rate (%) [4] [%] | Number of Dead Animals [4]
1 | CCCCCCCC/C=C\CCCCCCCC(=O)O [Oleic Acid, oleic acid] | less TTC-unstained area | incurs erythroclasis (hemolysis) | superior neuroprotective efficacy | 18.1 | 21
2 | CCCCCCCC/C=C\CCCCCCCC(=O)[O-].[Na+] [Sodium Oleate, sodium oleate] | less TTC-unstained area | – | – | 21.6 | 8
